“And” between values parts separate entries of the source, which are not always exact repeats. Identical values can stand only once. Toxic doses and inconclusive results are not listed.
Tested on: P388 leukemia ip, CD2F1 mice, survival T/C
Test: NCI In Vivo Anticancer Drug Screen. Data for tumor model P388 Leukemia (intraperitoneal) in CD2F1 (CDF1) mice
Conditions: endpoint: median survival time, higher = longer survival
How it was run: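 Mice carrying the transplanted tumor received test compound or vehicle. Survival was recorded in each group, and the value is the treated-group measurement divided by that of the vehicle-treated control group.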

[1] = dose: 25.0 mg/kg/injection, schedule: Q01DX009 (ip), vehicle: other
[2] = dose: 50.0 mg/kg/injection, schedule: Q01DX009 (ip), vehicle: other
[3] = dose: 50.0 mg/kg/injection, schedule: Q01DX005 (ip), vehicle: saline
[4] = dose: 100.0 mg/kg/injection, schedule: Q01DX005 (ip), vehicle: saline
[5] = dose: 200.0 mg/kg/injection, schedule: Q01DX005 (ip), vehicle: saline
[6] = dose: 50.0 mg/kg/injection, schedule: Q01DX005 (ip), vehicle: Klucel (hydroxypropylcellulose) (HPC)

CCOC(=O)/C=C(\C)N1CCCCC1
T/C (dose: 100.0 mg/kg/injection, schedule: Q04DX003 (ip), vehicle: saline): 100 % of control | T/C (dose: 200.0 mg/kg/injection, schedule: Q04DX003 (ip), vehicle: saline): 100 % of control | T/C (dose: 400.0 mg/kg/injection, schedule: Q04DX003 (ip), vehicle: saline): 100 % of control

CCCCCCCC(=O)OCC(=O)[C@]1(O)Cc2c(O)c3c(c(O)c2[C@@H](OC2CC(N)C(O)C(C)O2)C1)C(=O)c1c(OC)cccc1C3=O (stereo partly drawn)
T/C (dose: 0.5 mg/kg/injection, schedule: Q01DX009 (ip), vehicle: saline sonified): 159 % of control | T/C (dose: 0.5 mg/kg/injection, schedule: Q01DX009 (ip), vehicle: saline with Tween-80): 178 % of control | T/C (dose: 0.5 mg/kg/injection, schedule: Q01DX009 (ip), vehicle: water): 158 % of control | T/C (dose: 1.0 mg/kg/injection, schedule: Q01DX009 (ip), vehicle: saline sonified): 190 % of control | T/C (dose: 1.0 mg/kg/injection, schedule: Q01DX009 (ip), vehicle: saline with Tween-80): 185 % of control | T/C (dose: 1.0 mg/kg/injection, schedule: Q01DX009 (ip), vehicle: water): 181 % of control | T/C (dose: 1.73 mg/kg/injection, schedule: Q04DX003 (ip), vehicle: water): 172 % of control | T/C (dose: 2.0 mg/kg/injection, schedule: Q01DX009 (ip), vehicle: saline sonified): 231 % of control | T/C (dose: 2.0 mg/kg/injection, schedule: Q01DX009 (ip), vehicle: water): 247 % of control | T/C (dose: 2.88 mg/kg/injection, schedule: Q04DX003 (ip), vehicle: water): 198 % of control | T/C (dose: 4.0 mg/kg/injection, schedule: Q01DX009 (ip), vehicle: saline with Tween-80): 209 % of control and 92 % of control | T/C (dose: 4.0 mg/kg/injection, schedule: Q01DX009 (ip), vehicle: water): 104 % of control | T/C (dose: 4.8 mg/kg/injection, schedule: Q04DX003 (ip), vehicle: water): 202 % of control | T/C (dose: 8.0 mg/kg/injection, schedule: Q01DX009 (ip), vehicle: saline with Tween-80): 114 % of control | T/C (dose: 8.0 mg/kg/injection, schedule: Q04DX003 (ip), vehicle: water): 190 % of control | T/C (dose: 13.3 mg/kg/injection, schedule: Q04DX003 (ip), vehicle: water): 111 % of control

Nc1nc(N)nc(NCCSSCCNc2nc(N)nc(N)n2)n1
T/C (dose: 12.5 mg/kg/injection, schedule: Q01DX009 (ip), vehicle: other): 97 % of control | T/C [1]: 102 % of control | T/C [2]: 104 % of control and 86 % of control

CCC/C=C1/OC(=O)C2=C[C@H]3CC[C@]21[C@]1(OC(=O)C2=C1CCC=C2)[C@H]3CCC
T/C (dose: 7.0 mg/kg/injection, schedule: Q01DX005 (ip), vehicle: Klucel (hydroxypropylcellulose) (HPC)): 104 % of control | T/C (dose: 14.0 mg/kg/injection, schedule: Q01DX005 (ip), vehicle: Klucel (hydroxypropylcellulose) (HPC)): 100 % of control | T/C (dose: 28.0 mg/kg/injection, schedule: Q01DX005 (ip), vehicle: Klucel (hydroxypropylcellulose) (HPC)): 106 % of control | T/C (dose: 56.0 mg/kg/injection, schedule: Q01DX005 (ip), vehicle: Klucel (hydroxypropylcellulose) (HPC)): 97 % of control

C[N+](C)(C[Si](C)(C)C)C1CCCCCCCCCCC1
T/C (dose: 15.0 mg/kg/injection, schedule: Q01DX005 (ip), vehicle: saline with Tween-80): 102 % of control

Cc1cn(CCCSCC2OC3OC4C(CO)OC(OC5C(CO)OC(OC6C(CO)OC(OC7C(CO)OC(OC8C(CO)OC(OC9C(CO)OC(OC2C(O)C3O)C(O)C9O)C(O)C8O)C(O)C7O)C(O)C6O)C(O)C5O)C(O)C4O)c(=O)[nH]c1=O (stereo not drawn)
T/C [3]: 103 % of control | T/C [4]: 100 % of control | T/C [5]: 98 % of control

O=NNc1ncccn1
T/C (dose: 3.12 mg/kg/injection, schedule: Q01DX009 (ip), vehicle: water): 96 % of control | T/C (dose: 6.25 mg/kg/injection, schedule: Q01DX009 (ip), vehicle: water): 105 % of control | T/C (dose: 12.5 mg/kg/injection, schedule: Q01DX009 (ip), vehicle: water): 93 % of control | T/C (dose: 25.0 mg/kg/injection, schedule: Q01DX009 (ip), vehicle: water): 101 % of control | T/C (dose: 50.0 mg/kg/injection, schedule: Q01DX009 (ip), vehicle: water): 102 % of control | T/C (dose: 100.0 mg/kg/injection, schedule: Q01DX009 (ip), vehicle: water): 93 % of control

c1ccc2c(c1)CCc1cc(CN3CCOCC3)ccc1N2
T/C (dose: 60.0 mg/kg/injection, schedule: Q01DX005 (ip), vehicle: Klucel (hydroxypropylcellulose) (HPC)): 111 % of control | T/C (dose: 120.0 mg/kg/injection, schedule: Q01DX005 (ip), vehicle: Klucel (hydroxypropylcellulose) (HPC)): 108 % of control | T/C (dose: 240.0 mg/kg/injection, schedule: Q01DX005 (ip), vehicle: Klucel (hydroxypropylcellulose) (HPC)): 105 % of control

CC1=NC(c2ccccn2)=NNC(c2ccccn2)=C1c1ccccc1
T/C [1]: 113 % of control | T/C [2]: 116 % of control | T/C (dose: 100.0 mg/kg/injection, schedule: Q01DX009 (ip), vehicle: other): 116 % of control | T/C (dose: 200.0 mg/kg/injection, schedule: Q01DX009 (ip), vehicle: other): 114 % of control | T/C (dose: 400.0 mg/kg/injection, schedule: Q01DX009 (ip), vehicle: other): 120 % of control

NCCc1ccncc1
T/C (dose: 60.0 mg/kg/injection, schedule: Q01DX005 (ip), vehicle: suspension in saline): 98 % of control | T/C (dose: 120.0 mg/kg/injection, schedule: Q01DX005 (ip), vehicle: suspension in saline): 94 % of control

C[n+]1cccc2c1-c1c(ccc[n+]1C)C2
T/C [3]: 108 % of control | T/C [4]: 105 % of control | T/C [5]: 104 % of control

CC1C(=O)C23CCC4C5(C)CCCC4(CN4CCOC45)C2CCC1C3 (stereo not drawn)
T/C (dose: 1.0 mg/kg/injection, schedule: Q01DX009 (ip), vehicle: Klucel (hydroxypropylcellulose) (HPC)): 97 % of control | T/C (dose: 2.0 mg/kg/injection, schedule: Q01DX009 (ip), vehicle: Klucel (hydroxypropylcellulose) (HPC)): 95 % of control | T/C (dose: 4.0 mg/kg/injection, schedule: Q01DX009 (ip), vehicle: Klucel (hydroxypropylcellulose) (HPC)): 98 % of control | T/C (dose: 8.0 mg/kg/injection, schedule: Q01DX009 (ip), vehicle: Klucel (hydroxypropylcellulose) (HPC)): 103 % of control

COc1cc(CO)c(CO)cc1OC
T/C (dose: 0.75 mg/kg/injection, schedule: Q01DX005 (ip), vehicle: saline): 93 % of control | T/C (dose: 1.5 mg/kg/injection, schedule: Q01DX005 (ip), vehicle: saline): 95 % of control | T/C (dose: 3.0 mg/kg/injection, schedule: Q01DX005 (ip), vehicle: saline): 93 % of control | T/C (dose: 3.12 mg/kg/injection, schedule: Q01DX005 (ip), vehicle: saline): 98 % of control

O=[N+]([O-])c1ccc2c(c1)[S@@](=O)c1nc([N+](=O)[O-])cnc1N2
T/C [6]: 103 % of control | T/C (dose: 100.0 mg/kg/injection, schedule: Q01DX005 (ip), vehicle: Klucel (hydroxypropylcellulose) (HPC)): 101 % of control

Nc1ccc(S(=O)(=O)Nc2ccccc2-c2nc(N)nc(N)n2)cc1
T/C (dose: 50.0 mg/kg/injection, schedule: Q01DX009 (ip), vehicle: saline with Tween-80): 98 % of control | T/C (dose: 100.0 mg/kg/injection, schedule: Q01DX009 (ip), vehicle: saline with Tween-80): 97 % of control | T/C (dose: 200.0 mg/kg/injection, schedule: Q01DX009 (ip), vehicle: saline with Tween-80): 94 % of control | T/C (dose: 400.0 mg/kg/injection, schedule: Q01DX009 (ip), vehicle: saline with Tween-80): 101 % of control

COc1ccc(C=C(C(=O)CCN(C)C)C(=O)CCN(C)C)cc1
T/C [3]: 105 % of control | T/C [4]: 100 % of control

N#CNc1nnnn1-c1ccccc1 (tested in a mixture with another compound)
T/C (dose: 100.0 mg/kg/injection, schedule: Q04DX003 (ip), vehicle: Klucel (hydroxypropylcellulose) (HPC)): 96 % of control | T/C (dose: 200.0 mg/kg/injection, schedule: Q04DX003 (ip), vehicle: Klucel (hydroxypropylcellulose) (HPC)): 92 % of control | T/C (dose: 400.0 mg/kg/injection, schedule: Q04DX003 (ip), vehicle: Klucel (hydroxypropylcellulose) (HPC)): 98 % of control

CN(C)P(=O)(N(C)C)N1CCCC1
T/C (dose: 50.0 mg/kg/injection, schedule: Q01DX009 (ip), vehicle: saline): 104 % of control | T/C (dose: 100.0 mg/kg/injection, schedule: Q01DX009 (ip), vehicle: saline): 106 % of control | T/C (dose: 200.0 mg/kg/injection, schedule: Q01DX009 (ip), vehicle: saline): 105 % of control

O=C1C(=C(Cl)Cl)C(=O)c2ccccc21
T/C (dose: 12.5 mg/kg/injection, schedule: Q01DX005 (ip), vehicle: saline): 103 % of control | T/C (dose: 25.0 mg/kg/injection, schedule: Q01DX005 (ip), vehicle: saline): 100 % of control | T/C [6]: 91 % of control | T/C [3]: 95 % of control

O=C(Nc1ccc([N+](=O)[O-])cc1)c1c2ccccc2nc2ccccc12
T/C (dose: 50.0 mg/kg/injection, schedule: Q01DX005 (ip), vehicle: suspension in saline): 92 % of control | T/C (dose: 100.0 mg/kg/injection, schedule: Q01DX005 (ip), vehicle: suspension in saline): 100 % of control | T/C (dose: 200.0 mg/kg/injection, schedule: Q01DX005 (ip), vehicle: suspension in saline): 104 % of control

Source: PubChem BioAssay AID330 (DTP/NCI, 2004)
